# Results: patent US20260028584A1, “METHOD FOR EVALUATING AGGREGATION-SUPPRESSING ACTIVITY OR AGGREGATION-PROMOTING ACTIVITY ON AGGREGATING PROTEIN USING ORGANOID, AND METHOD FOR PRODUCING ORGANOID” (KANEKA CORPORATION, priority 2023, published 2026)
# Target: T1, amyloid β protein (QD-Aβ / Aβ42) deposited on and/or in cerebral organoid (Homo sapiens, UniProt P05067)
# T1 construct: To a reagent bottle of Aβ1-42 0.5 mg (manufactured by Peptide Institute, Inc.: Cat No. 4394v); purchased Peptide Institute, Inc. 4394v; host or cells: synthetic peptide, added to the culture of a cerebral organoid derived from human iPS cells (HPS08554)
# T1 sequence (P05067 672-713): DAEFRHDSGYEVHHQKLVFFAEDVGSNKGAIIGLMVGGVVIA
# Assay: Aβ deposition suppression on cerebral organoid with quantum dot-modified amyloid β (QD-Aβ), fluorescence image analysis
# Assay type: cell-based
# Settings: rosmarinic acid 50 μM; QD-Aβ 30 nM, artificial Aβ 10 μM; human iPS cell-derived cerebral organoid; 24 hours at 37° C.
# Method: An end of a tip for 1000 μL was cut with sterilized scissors, and the organoid grown to a diameter of 1 mm or larger prepared in Example 1 was sucked so as not to collapse, and transferred to a U-bottom 96-well plate. […]
# The next day, the culture supernatant was completely removed so as not to suck the organoid, and after 150 μL of a fresh NbM medium was added, the cultured organoid was observed and photographed using a fluorescence microscope.
# Using a fluorescent microscope (BZ-X800 manufactured by Keyence Corporation), the cultured organoid in Example 2 was photographed in a bright field at high resolution with an exposure time of 1/500 s to 1/2000 s, or at high sensitivity with an exposure time of 1/2000 s to 1/5000 s, using a Z stack with 20 μm intervals. […] Thereafter, in order to observe the deposition of quantum dot-modified amyloid β on the cultured organoid, red fluorescence was observed using a TRITC lens at high sensitivity with an exposure time of ¼ s to 1/8.5 s, and images were obtained according to the above procedure.
# Each of the images obtained above was analyzed as follows. Specifically, the hybrid cell count function was used to read the organoid images used in the various tests, select the bright field, and then set the extraction selection to OFF. The threshold of the read bright-field images was set to 200, and the organoid area was calculated (organoid surface area). […]
smiles,measurement,value
"O=C(/C=C/c1ccc(O)c(O)c1)O[C@H](Cc1ccc(O)c(O)c1)C(=O)O [rosmarinic acid, Rosmarinic acid]",Aβ deposition suppression rate,less than 5.0%
